Several values for one entry are separate records, joined by “and”; a condition that tells them apart may be missing. Identical values can stand only once.
System: 996289-038-R-J1-PDC complex spheroid viability
Test: Anticancer human tumor 996289-038-R-J1-PDC patient-derived colon adenocarcinoma cell line growth inhibition [CLK]
Settings: for viability, T/C: stronger effect = lower value
Text: A high-throughput screen of multi-cell type tumor spheroids was designed to identify active combinations of […] and targeted small molecules. Complex spheroids include a stromal component modeled by human endothelial cells (HUVEC) and fibroblasts modeled by human mesenchymal stem cells (MSCs). The concentration ranges selected for each drug and investigational agent were based upon clinically achievable concentrations if the clinical Cmax of the agent was known.
Compounds. The drugs and investigational agents: cirtuvivint (SM08502; NSC835563), CC-671 (NSC850746), vemurafenib (NSC761431), tapotoclax (NSC804041), sotorasib (NSC818433), adagrasib (NSC831453), MRTX-1133 (NSC836407), BAY2416964 (NSC825713), copanlisib (NSC816437), inavolisib (NSC800729), abemaciclib (NSC768073), osimertinib (NSC779217), entinostat (NSC756642), eltanexor (KPT-8602, NSC794443), venetoclax (NSC766270), ceralasertib (NSC777638), bortezomib (NSC756655), olaparib (NSC753686), talazoparib (NSC767125), alisertib (NSC759677), peposertib (NSC802822), gemcitabine (NSC613327), 5-fluorouracil (NSC19893), SN-38 (NSC673596), oxaliplatin (NSC266046), paclitaxel (NSC125973), and doxorubicin (NSC123127), were obtained from the National Cancer Institute (NCI) Developmental Therapeutics Program Chemical Repository. The FDA-approved anticancer drug set is available from the Developmental Therapeutics Program at https://dtp.cancer.gov/organization/dscb/obtaining/available plates.htm. […] The stock solutions were prepared in dimethyl sulfoxide (DMSO, Sigma-Aldrich, St. Louis, MO, cat. D2650), except for the platinum complexes which were prepared in saline (Quality Biological, Gaithersburg, MD, cat. 114-055-101), at 800-fold the tested concentration and stored at -70 degrees C prior to their use. All drugs and investigational agents were tested over a range starting from a high concentration at or near the clinical Cmax and decreasing in half-log increments. If the clinical Cmax for an agent had not been determined, the highest concentration tested was 10 microM.
Cell Culture. All cells were maintained in an incubator at 37 degrees C and 5% CO2 with 95% humidity. The PDC lines were cultured according to standard operating procedures established by the NCI PDMR. Briefly, all PDCs were thawed and cultured in Matrigel-coated flasks prepared with a working solution of 1X Ham's F-12 nutrient mix, without supplementation (Invitrogen, Waltham, MA, cat. 11765054), 100 U/mL penicillin-streptomycin (Invitrogen, cat. 15140122), and 2.5% Matrigel (Corning Inc., Corning, NY, cat. 354248) for the first three passages. The 947758-054-R-J2-PDC line was cultured in 6B/Colon 1A media, which includes advanced DMEM/F-12 (Thermo Fisher Scientific, cat. 12634028), 10 mM HEPES (Thermo Fisher Scientific, cat. 15630080), 1X GlutaMAX supplement (Thermo Fisher Scientific, cat. 35050061), 0.1 mg/mL primocin (InvivoGen, cat. ant-pm-2), 10% defined fetal bovine serum, heat inactivated (HyClone Laboratories Inc., cat. SH30070.03HI), 1.25 mM N-Acetyl-L-cysteine (Sigma-Aldrich, cat. A9165), 10 mM nicotinamide (Sigma-Aldrich, cat. N0636), 1X B-27 supplement (Thermo Fisher Scientific, cat. 17504044), 1X N-2 supplement (Thermo Fisher Scientific, cat. 17502048), and 10 microM Y-27632 dihydrochloride (Tocris Bioscience, cat. 1254). The 876862-298-R-J1-PDC was cultured in 6E media, which includes all 6B/Colon 1A media components plus 50% L-WRN conditioned media (ATCC, cat. CRL-3276), 50 ng/mL recombinant human EGF recombinant protein (hEGF; Thermo Fisher Scientific, cat. PHG0311), 10 ng/mL recombinant human fibroblast growth factor 10 (hGFG-10; PeproTech, cat. 100-26), 1 ng/mL recombinant human fibroblast growth factor 2 (hFGF-2; PeproTech, cat. 100-18B), and 1 µM prostaglandin E2 (PGE2; Tocris, cat. 2296). The 227483-062-R1-J1-PDC line was cultured in Panc media, containing all 6E components except hFGF-2, with the addition of 500 nM SB-431542 (Selleckchem, cat. S1067) and 10 nM gastrin (Tocris, cat. 3006). […]
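Also: spheroids exposed to the agents for 7 days before readout.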

## Nc1ccn(C2OC(CO)C(O)C2(F)F)c(=O)n1 (stereo not drawn)
Compound 0.0316 µM
  viability, T/C: 82% and 89.3%
Compound 0.1 µM
  viability, T/C: 62.9% and 70.5%
Compound 0.316 µM
  viability, T/C: 62.4% and 68.2%
Compound 1 µM
  viability, T/C: 55.8% and 65.7%
Compound 3.16 µM
  viability, T/C: 54.8% and 69.3%
Compound 10 µM
  viability, T/C: 47% and 59%
Curve of compound
  IC50: > 10 µM

## O=C(c1cc(Cc2n[nH]c(=O)c3ccccc23)ccc1F)N1CCN(C(=O)C2CC2)CC1
Compound 0.0316 µM
  viability, T/C: 99.9% and 109%
Compound 0.1 µM
  viability, T/C: 98.6% and 86.6%
Compound 0.316 µM
  viability, T/C: 103% and 108%
Compound 1 µM
  viability, T/C: 99.1% and 105%
Compound 3.16 µM
  viability, T/C: 105% and 113%
Compound 10 µM
  viability, T/C: 93.9% and 104%
Curve of compound
  IC50: > 10 µM

## O=c1[nH]cc(F)c(=O)[nH]1
Compound 0.0316 µM
  viability, T/C: 99.2% and 101%
Compound 0.1 µM
  viability, T/C: 83.9% and 82.2%
Compound 0.316 µM
  viability, T/C: 83.3% and 88.9%
Compound 1 µM
  viability, T/C: 79.7% and 78.6%
Compound 3.16 µM
  viability, T/C: 77.9% and 85.8%
Compound 10 µM
  viability, T/C: 73.3% and 74.8%
Curve of compound
  IC50: > 10 µM

## CCCS(=O)(=O)Nc1ccc(F)c(C(=O)c2c[nH]c3ncc(-c4ccc(Cl)cc4)cc23)c1F + CN1CCN(c2cc(C(=O)Nc3cc4cc(-c5cnn(C)c5)ccc4cn3)ccn2)CC1
Curve of first compound, second compound 0.0316 µM
  IC50: > 10 µM
Curve of first compound, second compound 0.1 µM
  IC50: > 10 µM
Curve of first compound, second compound 0.316 µM
  IC50: 6.17 µM
Curve of first compound, second compound 1 µM
  IC50: < 0.0316 µM
Curve of first compound, second compound 3.16 µM
  IC50: < 0.0316 µM
Curve of first compound, second compound 10 µM
  IC50: < 0.0316 µM
Second compound 0.0316 µM, first compound 0.0316 µM
  viability, T/C: 92.3%
Second compound 0.0316 µM, first compound 0.1 µM
  viability, T/C: 87.7%
Second compound 0.0316 µM, first compound 0.316 µM
  viability, T/C: 95%
Second compound 0.0316 µM, first compound 1 µM
  viability, T/C: 98%
Second compound 0.0316 µM, first compound 3.16 µM
  viability, T/C: 98.6%
Second compound 0.0316 µM, first compound 10 µM
  viability, T/C: 68.1%
Second compound 0.1 µM, first compound 0.0316 µM
  viability, T/C: 94.2%
Second compound 0.1 µM, first compound 0.1 µM
  viability, T/C: 82%
Second compound 0.1 µM, first compound 0.316 µM
  viability, T/C: 90.1%
Second compound 0.1 µM, first compound 1 µM
  viability, T/C: 92%
Second compound 0.1 µM, first compound 3.16 µM
  viability, T/C: 81.3%
Second compound 0.1 µM, first compound 10 µM
  viability, T/C: 57.3%
Second compound 0.316 µM, first compound 0.0316 µM
  viability, T/C: 67.4%
Second compound 0.316 µM, first compound 0.1 µM
  viability, T/C: 70.3%
Second compound 0.316 µM, first compound 0.316 µM
  viability, T/C: 70.9%
Second compound 0.316 µM, first compound 1 µM
  viability, T/C: 76.6%
Second compound 0.316 µM, first compound 3.16 µM
  viability, T/C: 65.7%
Second compound 0.316 µM, first compound 10 µM
  viability, T/C: 37.9%
Second compound 1 µM, first compound 0.0316 µM
  viability, T/C: 5.57%
Second compound 1 µM, first compound 0.1 µM
  viability, T/C: 6.02%
Second compound 1 µM, first compound 0.316 µM
  viability, T/C: 6.22%
Second compound 1 µM, first compound 1 µM
  viability, T/C: 7.67%
Second compound 1 µM, first compound 3.16 µM
  viability, T/C: 5.81%
Second compound 1 µM, first compound 10 µM
  viability, T/C: 5.48%
Second compound 3.16 µM, first compound 0.0316 µM
  viability, T/C: 1.49%
Second compound 3.16 µM, first compound 0.1 µM
  viability, T/C: 1.01%
Second compound 3.16 µM, first compound 0.316 µM
  viability, T/C: 1.22%
Second compound 3.16 µM, first compound 1 µM
  viability, T/C: 1.3%
Second compound 3.16 µM, first compound 3.16 µM
  viability, T/C: 2.36%
Second compound 3.16 µM, first compound 10 µM
  viability, T/C: 1.6%
Second compound 10 µM, first compound 0.0316 µM
  viability, T/C: 1.91%
Second compound 10 µM, first compound 0.1 µM
  viability, T/C: 0.63%
Second compound 10 µM, first compound 0.316 µM
  viability, T/C: 1.71%
Second compound 10 µM, first compound 1 µM
  viability, T/C: 0.77%
Second compound 10 µM, first compound 3.16 µM
  viability, T/C: 1.81%
Second compound 10 µM, first compound 10 µM
  viability, T/C: 0.48%

Source: PubChem BioAssay AID2060600 (Molecular Pharmacology Branch, DTP, NCI, 2025)
